According to PMC7156458, “Synthetic biology based construction of biological activity-related library of fungal decalin-containing diterpenoid pyrones” (Nature Communications, 2020):
Values joined by “and” are separate entries in the source; they are usually repeats but may differ in a detail not shown here. Equal values may be shown once. Read-outs that look alike come from different tables or passages of the source.

Tests used:
Type in all cases: cell-based
[1] = cytotoxicity in Drosophila l(2)mbn cells; details: Drosophila, l(2)mbn cells (larval blood cell-derived)
Method: (§1) We screened the DDPs on the Drosophila assay system for cytotoxicity, inhibitory activity of innate immune signalling and insecticidal activity. The cytotoxicity of the DDPs was evaluated using two cell lines, embryonic macrophage-derived DL1 cells[58]–[60] and larval blood cell-derived l(2)mbn cells, and their IC50 values are listed in Supplementary Table 23.

l(2)mbn cells = assay: cytotoxicity in Drosophila l(2)mbn cells; details: for Luminescence Raw1: replicate 1; for Luminescence Raw2: replicate 2; for IC50: Drosophila melanogaster, cytotoxicity
Method: as §1

[2] = cytotoxicity in Drosophila DL1 cells; details: Drosophila, DL1 cells (embryonic macrophage-derived), DL1 cells
Method: as §1

DL1 cells = assay: cytotoxicity in Drosophila DL1 cells; details: DL1 cells; for IC50: Drosophila melanogaster, cytotoxicity
Method: as §1

[3] = test system: human immunodeficiency virus-1 (HIV-1); assay: anti-HIV MAGI assay; details: anti-HIV
Description: We examined the inhibitory activities of DDPs against various species of bacteria (both gram-negative and gram-positive bacteria), fungi and viruses. […] In contrast, preliminary screening of the DDPs for anti-viral agents with hepatitis B virus (HBV), measles virus (MV), Epstein-Barr virus (EBV), herpes simplex virus (HSV) and human immunodeficiency virus-1 (HIV-1) indicated their selective inhibition of HIV.

MAGI cells = assay: cytotoxicity in the anti-HIV assay (CC50); details: for Cytotoxicity Avg.: average of numeric determinations; for Cytotoxicity: single determinations
[4] = replicate 1, relative to DMSO 1%, read-out: % viability, viability 1
[5] = replicate 2, relative to DMSO 1%, read-out: % viability, viability 2
[6] = average of two replicates, read-out: IC50 Average
[7] = replicate 1, read-out: IC50 (1)
[8] = replicate 2, read-out: IC50 (2)
[9] = Human immunodeficiency virus 1, MAGI, average of numeric determinations, read-out: Avg. EC50

SMILES: C=C1CCC2C(C)(CC(=O)C=C(C)C)C(O)CCC2(C)C1Cc1c(OC)oc(CO)c(C)c1=O (stereo not shown) [Compound 19]
- viability at 0.04 µM [1, 4]: 154%
- viability at 0.04 µM [1, 5]: 105%
- viability at 0.2 µM [1, 4]: 131%
- viability at 0.2 µM [1, 5]: 120%
- viability at 1 µM [1, 4]: 128%
- viability at 1 µM [1, 5]: 131%
- viability at 4 µM [1, 4]: 125%
- viability at 4 µM [1, 5]: 116%
- viability at 10 µM [1, 4]: 104%
- viability at 10 µM [1, 5]: 136%
- viability at 20 µM [1, 4]: 115%
- viability at 20 µM [1, 5]: 117%
- Luminescence Raw1 (l(2)mbn cells; 0.04 µM): 3944169
- Luminescence Raw2 (l(2)mbn cells; 0.04 µM): 2684872
- Luminescence Raw1 (l(2)mbn cells; 0.2 µM): 3351106
- Luminescence Raw2 (l(2)mbn cells; 0.2 µM): 3081647
- Luminescence Raw1 (l(2)mbn cells; 1 µM): 3286175
- Luminescence Raw2 (l(2)mbn cells; 1 µM): 3371307
- Luminescence Raw1 (l(2)mbn cells; 4 µM): 3215834
- Luminescence Raw2 (l(2)mbn cells; 4 µM): 2985337
- Luminescence Raw1 (l(2)mbn cells; 10 µM): 2665756
- Luminescence Raw2 (l(2)mbn cells; 10 µM): 3480969
- Luminescence Raw1 (l(2)mbn cells; 20 µM): 2956119
- Luminescence Raw2 (l(2)mbn cells; 20 µM): 3004455
- IC50 (l(2)mbn cells; average±SEM, read-out: IC50): > 20 µM
- viability at 0.04 µM [2, 4]: 92.6%
- viability at 0.04 µM [2, 5]: 93.4%
- viability at 0.2 µM [2, 4]: 78.6%
- viability at 0.2 µM [2, 5]: 86.7%
- viability at 1 µM [2, 4]: 92.1%
- viability at 1 µM [2, 5]: 87%
- viability at 4 µM [2, 4]: 86.9%
- viability at 4 µM [2, 5]: 80.7%
- viability at 10 µM [2, 4]: 52.8%
- viability at 10 µM [2, 5]: 59.6%
- viability at 20 µM [2, 4]: 15.3%
- viability at 20 µM [2, 5]: 22.3%
- Luminescence Raw1 (DL1 cells; 0.04 µM, replicate 1): 1907594
- Luminescence Raw2 (DL1 cells; 0.04 µM, replicate 2): 1924545
- Luminescence Raw1 (DL1 cells; 0.2 µM, replicate 1): 1618356
- Luminescence Raw2 (DL1 cells; 0.2 µM, replicate 2): 1786055
- Luminescence Raw1 (DL1 cells; 1 µM, replicate 1): 1896774
- Luminescence Raw2 (DL1 cells; 1 µM, replicate 2): 1792907
- Luminescence Raw1 (DL1 cells; 4 µM, replicate 1): 1789301
- Luminescence Raw2 (DL1 cells; 4 µM, replicate 2): 1663075
- Luminescence Raw1 (DL1 cells; 10 µM, replicate 1): 1087156
- Luminescence Raw2 (DL1 cells; 10 µM, replicate 2): 1227796
- Luminescence Raw1 (DL1 cells; 20 µM, replicate 1): 315492
- Luminescence Raw2 (DL1 cells; 20 µM, replicate 2): 459001
- IC50 (DL1 cells; [6]): 10.6 µM
- IC50 (DL1 cells; average±SEM, read-out: IC50): 10.6 ± 0.23 µM
- IC50 (DL1 cells; [7]): 10.3 µM
- IC50 (DL1 cells; [8]): 10.8 µM
- EC50 [3, 9]: 1.6 µM
- Cytotoxicity Avg. (MAGI cells): 6.013 µM
- Cytotoxicity (MAGI cells): 6.158 µM and 7.239 µM and 4.642 µM

SMILES: C=C1CCC2C(C)(CCC=C(C)C)C(O)CCC2(C)C1Cc1c(OC)oc(CO)c(C(=O)OC)c1=O (stereo not shown) [Compound 13]
- viability at 0.04 µM [1, 4]: 144%
- viability at 0.04 µM [1, 5]: 152%
- viability at 0.2 µM [1, 4]: 160%
- viability at 0.2 µM [1, 5]: 139%
- viability at 1 µM [1, 4]: 157%
- viability at 1 µM [1, 5]: 122%
- viability at 4 µM [1, 4]: 90.9%
- viability at 4 µM [1, 5]: 79.1%
- viability at 10 µM [1, 4]: 20.9%
- viability at 10 µM [1, 5]: 24.3%
- viability at 20 µM [1, 4]: 10.9%
- viability at 20 µM [1, 5]: 9.4%
- Luminescence Raw1 (l(2)mbn cells; 0.04 µM): 3699578
- Luminescence Raw2 (l(2)mbn cells; 0.04 µM): 3900517
- Luminescence Raw1 (l(2)mbn cells; 0.2 µM): 4107234
- Luminescence Raw2 (l(2)mbn cells; 0.2 µM): 3571875
- Luminescence Raw1 (l(2)mbn cells; 1 µM): 4025701
- Luminescence Raw2 (l(2)mbn cells; 1 µM): 3137197
- Luminescence Raw1 (l(2)mbn cells; 4 µM): 2332844
- Luminescence Raw2 (l(2)mbn cells; 4 µM): 2029883
- Luminescence Raw1 (l(2)mbn cells; 10 µM): 535109
- Luminescence Raw2 (l(2)mbn cells; 10 µM): 623453
- Luminescence Raw1 (l(2)mbn cells; 20 µM): 280543
- Luminescence Raw2 (l(2)mbn cells; 20 µM): 241241
- IC50 (l(2)mbn cells; [6]): 8.46 µM
- IC50 (l(2)mbn cells; average±SEM, read-out: IC50): 8.46 ± 0.98 µM
- IC50 (l(2)mbn cells; [7]): 9.44 µM
- IC50 (l(2)mbn cells; [8]): 7.47 µM
- viability at 0.04 µM [2, 4]: 100%
- viability at 0.04 µM [2, 5]: 102%
- viability at 0.2 µM [2, 4]: 78.9%
- viability at 0.2 µM [2, 5]: 70.5%
- viability at 1 µM [2, 4]: 9.59%
- viability at 1 µM [2, 5]: 9.84%
- viability at 4 µM [2, 4]: 6.11%
- viability at 4 µM [2, 5]: 5.06%
- viability at 10 µM [2, 4]: 7.19%
- viability at 10 µM [2, 5]: 6.02%
- viability at 20 µM [2, 4]: 4.62%
- viability at 20 µM [2, 5]: 3.94%
- Luminescence Raw1 (DL1 cells; 0.04 µM, replicate 1): 2061595
- Luminescence Raw2 (DL1 cells; 0.04 µM, replicate 2): 2096579
- Luminescence Raw1 (DL1 cells; 0.2 µM, replicate 1): 1624487
- Luminescence Raw2 (DL1 cells; 0.2 µM, replicate 2): 1452825
- Luminescence Raw1 (DL1 cells; 1 µM, replicate 1): 197587
- Luminescence Raw2 (DL1 cells; 1 µM, replicate 2): 202634
- Luminescence Raw1 (DL1 cells; 4 µM, replicate 1): 125835
- Luminescence Raw2 (DL1 cells; 4 µM, replicate 2): 104201
- Luminescence Raw1 (DL1 cells; 10 µM, replicate 1): 148189
- Luminescence Raw2 (DL1 cells; 10 µM, replicate 2): 124032
- Luminescence Raw1 (DL1 cells; 20 µM, replicate 1): 95187
- Luminescence Raw2 (DL1 cells; 20 µM, replicate 2): 81125
- IC50 (DL1 cells; [6]): 0.292 µM
- IC50 (DL1 cells; average±SEM, read-out: IC50): 0.29 ± 0.02 µM
- IC50 (DL1 cells; [7]): 0.311 µM
- IC50 (DL1 cells; [8]): 0.273 µM
- EC50 [3, 9]: 0.0688 µM
- EC50 ([3]; Human immunodeficiency virus 1, MAGI, single determinations, read-out: Efficacy (EC50)): 0.0697 µM
- EC50 ([3]; single determinations, read-out: Efficacy (EC50)): 0.0611 µM and 0.0814 µM and 0.0631 µM
- Cytotoxicity (MAGI cells): >10 µM

SMILES: C=C1CCC2C(C)(CCC=C(C)C)C(=O)CCC2(C)C1Cc1c(O)c(C)c(C)oc1=O (stereo not shown) [Compound 8]
- viability at 0.04 µM [1, 4]: 86%
- viability at 0.04 µM [1, 5]: 82.2%
- viability at 0.2 µM [1, 4]: 87.7%
- viability at 0.2 µM [1, 5]: 91.3%
- viability at 1 µM [1, 4]: 86.7%
- viability at 1 µM [1, 5]: 91.8%
- viability at 4 µM [1, 4]: 70.7%
- viability at 4 µM [1, 5]: 85.1%
- viability at 10 µM [1, 4]: 2.83%
- viability at 10 µM [1, 5]: 2.94%
- viability at 20 µM [1, 4]: 1.82%
- viability at 20 µM [1, 5]: 2.53%
- Luminescence Raw1 (l(2)mbn cells; 0.04 µM): 5399824
- Luminescence Raw2 (l(2)mbn cells; 0.04 µM): 5163481
- Luminescence Raw1 (l(2)mbn cells; 0.2 µM): 5509158
- Luminescence Raw2 (l(2)mbn cells; 0.2 µM): 5734687
- Luminescence Raw1 (l(2)mbn cells; 1 µM): 5444928
- Luminescence Raw2 (l(2)mbn cells; 1 µM): 5762112
- Luminescence Raw1 (l(2)mbn cells; 4 µM): 4437905
- Luminescence Raw2 (l(2)mbn cells; 4 µM): 5343895
- Luminescence Raw1 (l(2)mbn cells; 10 µM): 177623
- Luminescence Raw2 (l(2)mbn cells; 10 µM): 184474
- Luminescence Raw1 (l(2)mbn cells; 20 µM): 114164
- Luminescence Raw2 (l(2)mbn cells; 20 µM): 158874
- IC50 (l(2)mbn cells; [6]): 5.14 µM
- IC50 (l(2)mbn cells; average±SEM, read-out: IC50): 5.14 ± 0.3 µM
- IC50 (l(2)mbn cells; [7]): 4.83 µM
- IC50 (l(2)mbn cells; [8]): 5.44 µM
- viability at 0.04 µM [2, 4]: 189%
- viability at 0.04 µM [2, 5]: 219%
- viability at 0.2 µM [2, 4]: 185%
- viability at 0.2 µM [2, 5]: 208%
- viability at 1 µM [2, 4]: 129%
- viability at 1 µM [2, 5]: 131%
- viability at 4 µM [2, 4]: 18.2%
- viability at 4 µM [2, 5]: 20.6%
- viability at 10 µM [2, 4]: 22.8%
- viability at 10 µM [2, 5]: 24.1%
- viability at 20 µM [2, 4]: 21.6%
- viability at 20 µM [2, 5]: 21.3%
- Luminescence Raw1 (DL1 cells; 0.04 µM, replicate 1): 2594102
- Luminescence Raw2 (DL1 cells; 0.04 µM, replicate 2): 2999528
- Luminescence Raw1 (DL1 cells; 0.2 µM, replicate 1): 2536752
- Luminescence Raw2 (DL1 cells; 0.2 µM, replicate 2): 2851638
- Luminescence Raw1 (DL1 cells; 1 µM, replicate 1): 1767451
- Luminescence Raw2 (DL1 cells; 1 µM, replicate 2): 1791254
- Luminescence Raw1 (DL1 cells; 4 µM, replicate 1): 250019
- Luminescence Raw2 (DL1 cells; 4 µM, replicate 2): 282109
- Luminescence Raw1 (DL1 cells; 10 µM, replicate 1): 313118
- Luminescence Raw2 (DL1 cells; 10 µM, replicate 2): 331147
- Luminescence Raw1 (DL1 cells; 20 µM, replicate 1): 296893
- Luminescence Raw2 (DL1 cells; 20 µM, replicate 2): 291484
- IC50 (DL1 cells; [6]): 5.02 µM
- IC50 (DL1 cells; average±SEM, read-out: IC50): 5.02 ± 0.22 µM
- IC50 (DL1 cells; [7]): 4.8 µM
- IC50 (DL1 cells; [8]): 5.25 µM
- EC50 [3, 9]: 0.0232 µM
- Cytotoxicity Avg. (MAGI cells): 8.816 µM
- Cytotoxicity (MAGI cells): 9.604 µM and 7.239 µM
